For one test, the system named is KCL22 cells. The experiment in a line: Cytotoxicity, resazurin assay, KCL22. It is filed as cell-based, human. The note with it: for SI (KCL22): GI50 HEK-293T / GI50 KCL22; for GI50: Homo sapiens, KCL-22, 72 h, resazurin, GI50 ± SD. As to the method:
(§1) The development of the KCL22 subclone B8 (T315I, 100%) has been previously detailed. All cell lines were maintained in a humidified incubator at 37 °C and 5% CO2, following the manufacturer’s instructions, in the appropriate medium supplemented with 10% foetal bovine serum, penicillin (100 IU/mL), streptomycin (100 µg/mL), and glutamine (4 mM).
(§2) Cytotoxicity was assessed utilizing resazurin, an indicator dyes that measures oxidation-reduction reactions in the mitochondria of living cells. Cells were seeded into 96-well plates and treated with the compounds for 72 h (six different doses of each compound, in triplicate).
In general terms: The colour change of resazurin is a common sign of viable cells or microbes.

The subject of a further test is HEK-293T cells. The experiment in a line: Cytotoxicity, resazurin assay, non-neoplastic HEK-293T. It is filed as cell-based. The note with it: Homo sapiens, 72 h, GI50 ± SD. The procedure:
The human cell line KCL22 was sourced from the German Collection of Microorganisms and Cell Cultures, while K562 and HEK-293T cells were obtained from the European Collection of Authenticated Cell Cultures. The development of the KCL22 subclone B8 (T315I, 100%) has been previously detailed. All cell lines were maintained in a humidified incubator at 37 °C and 5% CO2, following the manufacturer’s instructions, in the appropriate medium supplemented with 10% foetal bovine serum, penicillin (100 IU/mL), streptomycin (100 µg/mL), and glutamine (4 mM).
Cytotoxicity was assessed utilizing resazurin, an indicator dyes that measures oxidation-reduction reactions in the mitochondria of living cells. Cells were seeded into 96-well plates and treated with the compounds for 72 h (six different doses of each compound, in triplicate). After treatment, a solution of resazurin (Merck, Prague, Czech Republic) was added for 4 h, and the fluorescence of resorufin corresponding to viable cell quantity was measured at 544 nm/590 nm (excitation/emission) using a Fluoroskan Ascent microplate reader (LabSystems, Helsinki, Finland).

The next test deals with KCL22-B8 cells. The experiment in a line: Cytotoxicity, resazurin assay, KCL22-B8 (Bcr-Abl T315I). The format is cell-based, human. The following applies: for GI50: 72 h, resazurin, GI50 ± SD, Bcr-Abl T315I, imatinib-resistant; for SI (KCL22-B8): GI50 HEK-293T / GI50 KCL22-B8. As to the method: as §1, §2
In a further test the target is T1, recombinant Abl1 kinase (Homo sapiens, UniProt P00519).
T1 construct: made in house
The experiment in a line: Abl1 kinase inhibition assay (peptide substrate, [γ-33P]ATP). The format is biochemical. The procedure:
The inhibitory activity of the synthesized compounds was assessed on an in-house produced recombinant Abl1 kinase. The assay utilized 500 µM peptide […] as a substrate in the presence of 1 µM ATP + [γ-33P]ATP (0.05 µCi per reaction) and the test compound in a final volume of 10 µL of reaction buffer (60 mM HEPES-NaOH, pH 7.5, 3 mM MgCl2, 3 mM MnCl2, 3 μM Na-orthovanadate, 1.2 mM DTT, 2.5 μg/50 μL PEG20.000). The reaction was terminated by adding 5 µL of 3% aq. H3PO4. Aliquots were spotted onto P-81 phosphocellulose (Whatman, Maidstone, UK), washed three times with 0.5% aq. H3PO4, and air-dried. Peptide phosphorylation was quantified through digital autoradiography (FLA-7000; Fujifilm, Tokyo, Japan).

A further test deals with K562 cells. The experiment in a line: Cytotoxicity, resazurin assay, K562. The format is cell-based, human. The following applies: for SI (K562): GI50 HEK-293T / GI50 K562; for GI50: Homo sapiens, K562, 72 h, resazurin, GI50 ± SD. The procedure: as §1, §2
Test [1] relates to KCL22 cells with Bcr-Abl^T315I. The note with it: cited from earlier work.
[2] abbreviates: experimental pIC50 = −logIC50 on Abl, read-out: pIC50 Exp (converted).
[3] abbreviates: in vitro inhibition of Abl1 kinase, 1 µM ATP, at least three independent experiments, read-out: IC50 Abl.

Where two headings read alike, the source gives them in different places.

T1 sequence (P00519 whole entry): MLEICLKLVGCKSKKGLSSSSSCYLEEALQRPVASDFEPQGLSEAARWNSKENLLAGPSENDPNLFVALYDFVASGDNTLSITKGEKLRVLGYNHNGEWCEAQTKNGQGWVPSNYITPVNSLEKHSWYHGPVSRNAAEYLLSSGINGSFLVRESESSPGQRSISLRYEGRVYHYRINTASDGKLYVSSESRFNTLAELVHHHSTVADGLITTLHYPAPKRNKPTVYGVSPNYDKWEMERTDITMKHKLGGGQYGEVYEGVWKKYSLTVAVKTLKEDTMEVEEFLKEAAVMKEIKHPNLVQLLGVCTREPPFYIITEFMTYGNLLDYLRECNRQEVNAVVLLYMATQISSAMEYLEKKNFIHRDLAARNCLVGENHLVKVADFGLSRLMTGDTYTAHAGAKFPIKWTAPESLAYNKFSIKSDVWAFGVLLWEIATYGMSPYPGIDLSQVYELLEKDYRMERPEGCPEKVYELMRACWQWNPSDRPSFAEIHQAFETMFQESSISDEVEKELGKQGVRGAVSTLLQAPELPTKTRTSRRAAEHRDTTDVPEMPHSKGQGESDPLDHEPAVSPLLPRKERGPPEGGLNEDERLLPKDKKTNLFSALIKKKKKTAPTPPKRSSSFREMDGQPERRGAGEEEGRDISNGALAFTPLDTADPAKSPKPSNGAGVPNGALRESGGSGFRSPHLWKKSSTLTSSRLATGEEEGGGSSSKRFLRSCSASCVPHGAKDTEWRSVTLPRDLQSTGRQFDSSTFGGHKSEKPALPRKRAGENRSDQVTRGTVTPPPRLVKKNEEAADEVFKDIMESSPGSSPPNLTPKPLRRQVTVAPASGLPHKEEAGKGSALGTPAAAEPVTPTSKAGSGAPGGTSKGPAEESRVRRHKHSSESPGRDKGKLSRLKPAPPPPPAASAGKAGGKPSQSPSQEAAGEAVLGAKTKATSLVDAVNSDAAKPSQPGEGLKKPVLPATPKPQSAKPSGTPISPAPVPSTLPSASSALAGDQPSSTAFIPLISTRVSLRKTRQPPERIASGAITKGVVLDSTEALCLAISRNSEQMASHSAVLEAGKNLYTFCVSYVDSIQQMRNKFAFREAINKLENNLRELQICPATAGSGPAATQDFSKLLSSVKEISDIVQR

As a reminder, the GI50 is the concentration giving 50% growth inhibition. With `OCCN1CCN(c2ccc(Nc3nc(Nc4ccc(Cl)c(C(F)(F)F)c4)c4ncn(CC5CC5)c4n3)cc2)CC1` [Compound 7f, 2-(4-(4-((6-((4-Chloro-3-(trifluoromethyl)phenyl)amino)-9-(cyclopropylmethyl)-9H-purin-2-yl)amino)phenyl)piperazin-1-yl)ethan-1-ol], the “SI (KCL22)” value in the test on KCL22 cells was determined as 0.3. Moreover, the GI50 is 12.4 ± 4.28 µM with KCL22 cells; 3.96 ± 0.57 µM in the test on HEK-293T cells; 13.8 ± 3.05 µM with KCL22-B8 cells; 15.4 µM with KCL22-B8 cells (Homo sapiens); 3.56 ± 0.52 µM with K562 cells. The “SI (KCL22-B8)” value with KCL22-B8 cells is 0.3. Besides, the figures for the IC50 on recombinant Abl1 kinase (setting [2]) and at recombinant Abl1 kinase (setting [3]) were 1.26 µM and 1.26 ± 0.65 µM, respectively. Also, the “SI (K562)” value with K562 cells is 1.1.

For the molecule `COC(=O)c1ccc(Nc2nc(Nc3ccc(N4CCN(CCO)CC4)cc3)nc3c2ncn3CC2CC2)cc1Cl` [Compound 7e, Methyl 2-chloro-4-((9-(cyclopropylmethyl)-2-((4-(4-(2-hydroxyethyl)piperazin-1-yl)phenyl)amino)-9H-purin-6-yl)amino)benzoate], the “SI (KCL22)” value with KCL22 cells is listed as 1.7. The GI50 turned out to be 3.88 ± 1.46 µM with KCL22 cells; 5.98 ± 2.78 µM in the test with HEK-293T cells; 15.4 ± 0.98 µM with KCL22-B8 cells; 13.8 µM with KCL22-B8 cells (Homo sapiens); 2.19 ± 1.42 µM in the test on K562 cells. Besides, in the test with KCL22-B8 cells, the “SI (KCL22-B8)” value is recorded as 0.4. Moreover, the IC50 was 0.42 µM on recombinant Abl1 kinase (setting [2]) and 0.42 ± 0.08 µM on recombinant Abl1 kinase (setting [3]). Besides, in the test with K562 cells, the “SI (K562)” value is 2.7.

For `OCCOCCN1CCN(c2ccc(Nc3nc(Nc4cccc(F)c4)c4ncn(CC5CC5)c4n3)cc2)CC1` [Compound 7a, 2-(2-(4-(4-((9-(Cyclopropylmethyl)-6-((3-fluorophenyl)amino)-9H-purin-2-yl)amino)phenyl)piperazin-1-yl)ethoxy)ethan-1-ol], in the test on KCL22 cells, the “SI (KCL22)” value is 2.9. Also, the GI50 with KCL22 cells came to 2.38 ± 1.12 µM; in the test on HEK-293T cells, 6.85 ± 0.66 µM; with KCL22-B8 cells (Homo sapiens), 17.4 ± 2.02 µM; with K562 cells it was 1.37 ± 0.61 µM. In addition, in the test with KCL22-B8 cells, the “SI (KCL22-B8)” value came to 0.4. Besides, the IC50 on recombinant Abl1 kinase (setting [2]) is 0.13 µM; at recombinant Abl1 kinase (setting [3]), 0.13 ± 0.03 µM. The “SI (K562)” value in the test with K562 cells is on record as 5.0.

For `COc1cc(Nc2nc(Nc3ccc(N4CCN(CCO)CC4)cc3)nc3c2ncn3CC2CC2)ccc1Br` [Compound 7g, 2-(4-(4-((6-((4-Bromo-3-methoxyphenyl)amino)-9-(cyclopropylmethyl)-9H-purin-2-yl)amino)phenyl)piperazin-1-yl)ethan-1-ol], the “SI (KCL22)” value with KCL22 cells came to 0.8. In addition, the GI50 with KCL22 cells stood at 5.51 ± 1.08 µM; with HEK-293T cells it was 4.32 ± 1.42 µM; in the test with KCL22-B8 cells it was 16.6 ± 0.92 µM; in the test on KCL22-B8 cells (Homo sapiens), 15.4 µM; with K562 cells it was 2.34 ± 1.04 µM. Moreover, the “SI (KCL22-B8)” value in the test on KCL22-B8 cells was 0.3. The IC50 on recombinant Abl1 kinase (setting [2]) is 0.791 µM; on recombinant Abl1 kinase (setting [3]) it was 0.79 ± 0.14 µM. Moreover, the “SI (K562)” value in the test with K562 cells was 1.8.

Turning to `N#Cc1cccc(Nc2nc(Nc3ccc(N4CCN(CCO)CC4)cc3)nc3c2ncn3CC2CC2)c1` [Compound 7b, 3-((9-(Cyclopropylmethyl)-2-((4-(4-(2-hydroxyethyl)piperazin-1-yl)phenyl)amino)-9H-purin-6-yl)amino)benzonitrile], the “SI (KCL22)” value in the test with KCL22 cells was 1.1. The GI50 in the test on KCL22 cells stood at 13.1 ± 2.21 µM; in the test on HEK-293T cells, 14.8 ± 0.91 µM; in the test with KCL22-B8 cells (Homo sapiens) it was 17.9 ± 2.71 µM; in the test on K562 cells, 4.04 ± 1.87 µM. Further, the “SI (KCL22-B8)” value in the test with KCL22-B8 cells was determined as 0.8. In addition, the IC50 on recombinant Abl1 kinase (setting [2]) was 0.46 µM; at recombinant Abl1 kinase (setting [3]) it was 0.46 ± 0.15 µM. Further, the “SI (K562)” value in the test on K562 cells was determined as 3.6.

`OCCN1CCN(c2ccc(Nc3nc(Nc4cccc(Br)c4)c4ncn(CC5CC5)c4n3)cc2)CC1` [Compound 7d, 2-(4-(4-((6-((3-Bromophenyl)amino)-9-(cyclopropylmethyl)-9H-purin-2-yl)amino)phenyl)piperazin-1-yl)ethan-1-ol]: the “SI (KCL22)” value with KCL22 cells was 2.7. For the same molecule, the GI50 with KCL22 cells was found to be 2.96 ± 0.97 µM; in the test with HEK-293T cells, 7.87 ± 1.53 µM; with KCL22-B8 cells (Homo sapiens) it was 20.1 ± 2.35 µM; in the test with K562 cells, 1.44 ± 0.91 µM. Also, in the test on KCL22-B8 cells, the “SI (KCL22-B8)” value worked out at 0.4. Moreover, the figures for the IC50 on recombinant Abl1 kinase (setting [2]) and at recombinant Abl1 kinase (setting [3]) were 0.21 µM and 0.21 ± 0.01 µM, respectively. Moreover, the “SI (K562)” value in the test on K562 cells is 5.5.

In the case of `Cc1cn(-c2cc(NC(=O)c3ccc(C)c(Nc4nccc(-c5cccnc5)n4)c3)cc(C(F)(F)F)c2)cn1` [nilotinib], the GI50 in test [1] is more than 20 µM.

`N#Cc1cccc(Nc2nc(Nc3ccc(N4CCN(CCO)CC4)nc3)nc3c2ncn3CC2CC2)c1` [Compound 7c, 3-((9-(Cyclopropylmethyl)-2-((6-(4-(2-hydroxyethyl)piperazin-1-yl)pyridin-3-yl)amino)-9H-purin-6-yl)amino)benzonitrile]: the “SI (KCL22)” value in the test on KCL22 cells is 16. Also, the GI50 in the test on KCL22 cells was 1.54 ± 1.02 µM; in the test with HEK-293T cells, more than 25 µM; in the test with KCL22-B8 cells (Homo sapiens), more than 25 µM; with K562 cells it was 0.3 ± 0.11 µM. Also, the “fold more potent than 7b” value in the test with KCL22 cells (KCL22 cells, GI50 ratio) is recorded as “approximately 8.5 fold”; with K562 cells (K562 cells, GI50 ratio), 13 fold. In addition, the “SI (KCL22-B8)” value in the test with KCL22-B8 cells was found to be 0.8. Also, the IC50 at recombinant Abl1 kinase (setting [2]) was 0.19 µM; at recombinant Abl1 kinase (setting [3]), 0.19 ± 0.05 µM.

(Values after publication PMC12195648 (Pharmaceuticals, 2025).)
